Measurements from patent publication US6699686B1, “Modified nuclear glucocorticoid receptor, fusion protein, and DNA fragments coding for said receptor and said fusion protein” (Association pour le Development de la Recherche en …, priority 1996, dated 2004).

Biological target: T1, Cre-LBD[GR(I747/T)] (Homo sapiens, UniProt P04150, I747T)
T1 construct: the region containing the mutated LBD of HG1 [aa 500-777]; Cre recombinase aa 1-343 (bacteriophage P1); F region of the human estrogen receptor (aa 553-595); expressed in transfected cells
T1 sequence (P04150 500-777 I747T): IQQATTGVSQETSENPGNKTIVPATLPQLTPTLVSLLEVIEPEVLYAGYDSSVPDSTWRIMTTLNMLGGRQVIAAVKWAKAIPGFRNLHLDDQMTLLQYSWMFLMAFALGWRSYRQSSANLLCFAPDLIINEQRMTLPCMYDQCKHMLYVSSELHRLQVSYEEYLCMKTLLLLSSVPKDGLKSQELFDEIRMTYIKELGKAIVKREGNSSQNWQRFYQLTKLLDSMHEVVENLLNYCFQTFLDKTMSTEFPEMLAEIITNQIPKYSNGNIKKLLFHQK
Test: PCR test of excision between loxP sites after transient transfection of pCre-LBD[GR(I747/T)] in RXRα+/−(LNL) F9 cells
Type: cell-based
Conditions: ligand 10^−6 M, 72 hours, murine F9 RXRα+/−(LNL) cells
Protocol: [optionally cotransfected with 5 μg of the vector pRXRα^(LNL) for the HeLa cells] with the aid of an electroporator (Bio-Rad gene pulser), set at 200 V and 960 μF. The cells were then inoculated at 10^6 cells per 100 mm dish and treated, if necessary, with ligands.
The DNA amplifications were carried out using the “Polymerase Chain Reaction” (PCR) technique according to the protocol described by Chen and Evans (60). The primers used are: SB211 and PZ105, having respectively as nucleotide sequence 5′-[…]-3′ (SEQ ID NO: 10) and 5′-[…]-3′ (SEQ ID NO: 11). After denaturation for 8 min at 94° C., 2.5 units of Taq polymerase are added. The amplification is carried out by performing 35 cycles (30 sec. at 94° C., 30 sec. at 50° C.) followed by one cycle (30 sec. at 94° C., 30 sec. at 50° C., 5 min at 72° C.), the product of which is stored at 4° C.
The products of the reactions were separated on polyacrylamide (10%) or agarose (2.5%) gel. The DNA was visualized by UV followed by ethidium bromide staining, or by Southern blotting (42).
The products of the reaction were separated on acrylamide gel and stained with ethidium bromide.

C[C@]12CCC(=O)C=C1CC[C@@H]1[C@@H]2[C@@H](O)C[C@@]2(C)[C@H]1CC[C@]2(O)C(=O)CO [Cortisol, cortisol]
excision of sequences between loxP sites (191 bp PCR fragment of recombinant allele): no fragment of this size is observed
